In PubChem BioAssay (NCI):
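Abbreviation: GI50, concentration required for 50% inhibition of growth. TGI denotes the concentration required for complete inhibition of growth.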

Columns and labels:
Test in all cases: DTP human tumour cell line panel, 384-well format
SF-268 CNS = system: SF-268 CNS
KM12 colon = system: KM12 colon
HT29 colon = system: HT29 colon
HOP-62 NSCLC = system: HOP-62 NSCLC
A549 NSCLC = system: A549 NSCLC
PC-3 prostate = system: PC-3 prostate
SK-MEL-5 melanoma = system: SK-MEL-5 melanoma
COLO 205 colon = system: COLO 205 colon
SW-620 colon = system: SW-620 colon
CAKI-1 renal = system: CAKI-1 renal
IGROV1 ovarian = system: IGROV1 ovarian
NCI-H226 lung = system: NCI-H226 lung
SK-OV-3 ovarian = system: SK-OV-3 ovarian
UACC-257 melanoma = system: UACC-257 melanoma
SR leukemia = system: SR leukemia
UO-31 renal = system: UO-31 renal
BT-549 breast = system: BT-549 breast
SK-MEL-28 melanoma = system: SK-MEL-28 melanoma
MOLT-4 leukemia = system: MOLT-4 leukemia
SF-539 CNS = system: SF-539 CNS
U251 glioblastoma = system: U251 glioblastoma
NCI-H460 NSCLC = system: NCI-H460 NSCLC
A498 renal = system: A498 renal
UACC-62 melanoma = system: UACC-62 melanoma
HOP-92 NSCLC = system: HOP-92 NSCLC
MALME-3M melanoma = system: MALME-3M melanoma
ACHN renal = system: ACHN renal
HCT-15 colon = system: HCT-15 colon
HL-60(TB) leukemia = system: HL-60(TB) leukemia
MDA-MB-468 breast = system: MDA-MB-468 breast
MDA-MB-435 melanoma = system: MDA-MB-435 melanoma
RXF 393 renal = system: RXF 393 renal
MDA-MB-231 breast = system: MDA-MB-231 breast
DU-145 prostate = system: DU-145 prostate
NCI-H522 lung = system: NCI-H522 lung
OVCAR-4 ovarian = system: OVCAR-4 ovarian
786-0 renal = system: 786-0 renal
TK-10 renal = system: TK-10 renal
EKVX NSCLC = system: EKVX NSCLC
K-562 leukemia = system: K-562 leukemia
OVCAR-8 ovarian = system: OVCAR-8 ovarian
SF-295 CNS = system: SF-295 CNS
OVCAR-5 ovarian = system: OVCAR-5 ovarian
SK-MEL-2 melanoma = system: SK-MEL-2 melanoma
SN12C renal = system: SN12C renal
M14 melanoma = system: M14 melanoma
OVCAR-3 ovarian = system: OVCAR-3 ovarian
NCI-H322M lung = system: NCI-H322M lung
T-47D breast = system: T-47D breast
SNB-19 CNS = system: SNB-19 CNS
NCI-H23 lung = system: NCI-H23 lung
SNB-75 CNS = system: SNB-75 CNS
MCF7 breast = system: MCF7 breast
HS 578T breast = system: HS 578T breast

Work on `Cc1nc(Nc2n[nH]c3c2CN(C(=O)N[C@H](CN(C)C)c2ccccc2)C3(C)C)c2sccc2n1` yielded a GI50 (SF-268 CNS) of 118 nM, a TGI (SF-268 CNS) of 1350 nM and a GI50 (KM12 colon) of under 10 nM. The TGI (KM12 colon) was 1060 nM, the GI50 (HT29 colon) was 10.8 nM and the TGI (HT29 colon) was 1750 nM. For the same molecule, the GI50 (HOP-62 NSCLC) was under 10 nM, the TGI (HOP-62 NSCLC) was 113 nM and the GI50 (A549 NSCLC) was 39.6 nM. The TGI (A549 NSCLC) was 61700 nM, the GI50 (PC-3 prostate) was under 10 nM and the TGI (PC-3 prostate) was 642 nM. It also gave a GI50 (SK-MEL-5 melanoma) of under 10 nM, a TGI (SK-MEL-5 melanoma) of 827 nM and a GI50 (COLO 205 colon) of under 10 nM. It also gave a TGI (COLO 205 colon) of 193 nM, a GI50 (SW-620 colon) of under 10 nM and a TGI (SW-620 colon) of 2210 nM. The GI50 (CAKI-1 renal) was 52.2 nM, the TGI (CAKI-1 renal) was 2790 nM and the GI50 (IGROV1 ovarian) was under 10 nM. It also gave a TGI (IGROV1 ovarian) of 449 nM, a GI50 (NCI-H226 lung) of 88.1 nM and a TGI (NCI-H226 lung) of 1590 nM. It also gave a GI50 (SK-OV-3 ovarian) of 178 nM, a TGI (SK-OV-3 ovarian) of 8090 nM and a GI50 (UACC-257 melanoma) of 19 nM. For the same molecule, the TGI (UACC-257 melanoma) was 632 nM, the GI50 (SR leukemia) was under 10 nM and the GI50 (UO-31 renal) was 1610 nM. The TGI (UO-31 renal) was 14400 nM, the GI50 (BT-549 breast) was under 10 nM and the TGI (BT-549 breast) was 109 nM. It also gave a GI50 (SK-MEL-28 melanoma) of under 10 nM, a TGI (SK-MEL-28 melanoma) of 1260 nM and a GI50 (MOLT-4 leukemia) of under 10 nM. For the same molecule, the TGI (MOLT-4 leukemia) was 122 nM, the GI50 (SF-539 CNS) was under 10 nM and the TGI (SF-539 CNS) was 1020 nM. It also gave a GI50 (U251 glioblastoma) of under 10 nM, a TGI (U251 glioblastoma) of 2660 nM and a GI50 (NCI-H460 NSCLC) of under 10 nM. It also gave a TGI (NCI-H460 NSCLC) of 1300 nM, a GI50 (A498 renal) of 30.1 nM and a TGI (A498 renal) of 2380 nM. The GI50 (UACC-62 melanoma) was under 10 nM, the TGI (UACC-62 melanoma) was 19.4 nM and the GI50 (HOP-92 NSCLC) was 131 nM. The TGI (HOP-92 NSCLC) was 911 nM, the GI50 (MALME-3M melanoma) was under 10 nM and the TGI (MALME-3M melanoma) was 1490 nM. It also gave a GI50 (ACHN renal) of 35.6 nM, a TGI (ACHN renal) of 3060 nM and a GI50 (HCT-15 colon) of 449 nM. It also gave a TGI (HCT-15 colon) of 13600 nM, a GI50 (HL-60(TB) leukemia) of under 10 nM and a TGI (HL-60(TB) leukemia) of 117 nM. The GI50 (MDA-MB-468 breast) was under 10 nM, the TGI (MDA-MB-468 breast) was 431 nM and the GI50 (MDA-MB-435 melanoma) was under 10 nM. It also gave a TGI (MDA-MB-435 melanoma) of 1670 nM, a GI50 (RXF 393 renal) of 144 nM and a TGI (RXF 393 renal) of 960 nM. The GI50 (MDA-MB-231 breast) was 102 nM, the TGI (MDA-MB-231 breast) was 1240 nM and the GI50 (DU-145 prostate) was under 10 nM. The TGI (DU-145 prostate) was 10200 nM, the GI50 (NCI-H522 lung) was under 10 nM and the TGI (NCI-H522 lung) was 214 nM. For the same molecule, the GI50 (OVCAR-4 ovarian) was 40.6 nM, the TGI (OVCAR-4 ovarian) was 3790 nM and the GI50 ([…]-0 renal) was 58.1 nM. For the same molecule, the TGI (786-0 renal) was 1920 nM, the GI50 (TK-10 renal) was 179 nM and the TGI (TK-10 renal) was 11000 nM. It also gave a GI50 (EKVX NSCLC) of 195 nM, a TGI (EKVX NSCLC) of 2140 nM and a GI50 (K-562 leukemia) of under 10 nM. For the same molecule, the TGI (K-562 leukemia) was 3390 nM, the GI50 (OVCAR-8 ovarian) was 33.3 nM and the TGI (OVCAR-8 ovarian) was 1470 nM. It also gave a GI50 (SF-295 CNS) of 57.1 nM, a TGI (SF-295 CNS) of 2290 nM and a GI50 (OVCAR-5 ovarian) of 61.3 nM. The TGI (OVCAR-5 ovarian) was 11200 nM, the GI50 (SK-MEL-2 melanoma) was under 10 nM and the TGI (SK-MEL-2 melanoma) was 207 nM. For the same molecule, the GI50 (SN12C renal) was under 10 nM, the TGI (SN12C renal) was 1150 nM and the GI50 (M14 melanoma) was 18.8 nM. The TGI (M14 melanoma) was 1500 nM, the GI50 (OVCAR-3 ovarian) was under 10 nM and the TGI (OVCAR-3 ovarian) was 152 nM. The GI50 (NCI-H322M lung) was 174 nM, the TGI (NCI-H322M lung) was 1580 nM and the GI50 (T-47D breast) was 576 nM. It also gave a TGI (T-47D breast) of 3840 nM, a GI50 (SNB-19 CNS) of 382 nM and a TGI (SNB-19 CNS) of 12500 nM. It also gave a GI50 (NCI-H23 lung) of under 10 nM, a TGI (NCI-H23 lung) of 214 nM and a GI50 (SNB-75 CNS) of 274 nM. It also gave a TGI (SNB-75 CNS) of 1410 nM, a GI50 (MCF7 breast) of under 10 nM and a TGI (MCF7 breast) of 193 nM. It also gave a GI50 (HS 578T breast) of 93.6 nM and a TGI (HS 578T breast) of 763 nM.
